The text below walks through data of patent publication US20250197864A1, “LNCRNA TRANSCRIPTS IN MELANOMAGENESIS” (The Regents of the University of California, priority 2021, published 2025).

Data set [1] relates to T98G Glioblastoma cell line. The experiment in a line: Cell viability assay (ATP quantitation). Format: cell-based. As to conditions: 50 nM, 5 days, vs non-targeting control. As for the experimental part: (§1) EsiRNA, siRNA and ASO GapmeRs were transfected in a final concentration of 50 nM unless mentioned otherwise and the transfection reagent Lipofectamine 3000 (2 ul/ml) was added according to the manufacturer's instructions.
(§2) Dependent on cell doubling time, 0.7-2×10^^3 cells were seeded in 96 well plates. 1 day after seeding cells were incubated in media with oligonucleotide concentration and/or MEKi and transfection reagent. 3 (synergy experiments) or 5 (solely ASO) days after transfection Total luminescence was measured on the SynergyHT plate reader (BioTek) using Gen5 software.

In data set [2] the test system is Sk-N-AS Neuroblastoma cell line. The experiment in a line: Cell viability assay (ATP quantitation). Format: cell-based. As to conditions: 50 nM, 5 days, vs non-targeting control. The procedure:
as §1, §2

In data set [3] the test system is Sk-Mel-5 melanoma cell line. In words: Cell viability assay (ATP quantitation). It counts as cell-based. As to conditions: 50 nM, 5 days, vs non-targeting control. The procedure:
as §1, §2

The test system of data set [4] is SW480 colon carcinoma cell line. The experiment in a line: Cell viability assay (ATP quantitation). It counts as cell-based. The settings on record: 50 nM, 5 days, vs non-targeting control. The procedure: as §1, §2
In data set [5] the test system is U138-MG Glioblastoma cell line. The experiment in a line: Cell viability assay (ATP quantitation). It counts as cell-based. The settings on record: 50 nM, 5 days, vs non-targeting control. As for the experimental part:
as §1, §2

For data set [6], the system named is U20S osteosarcoma cell line. In words: Cell viability assay (ATP quantitation). Format: cell-based. The settings on record: 50 nM, 5 days, vs non-targeting control. The procedure: as §1, §2
Data set [7] concerns H1299 lung cancer cell line. The experiment in a line: Cell viability assay (ATP quantitation). It counts as cell-based. The settings on record: 50 nM, 5 days, vs non-targeting control. As for the experimental part:
as §1, §2

The subject of data set [8] is H82 lung cancer cell line. The experiment in a line: Cell viability assay (ATP quantitation). It counts as cell-based. As to conditions: 50 nM, 5 days, vs non-targeting control. As for the experimental part:
as §1, §2

In data set [9] the test system is WM3060 melanoma cell line. The experiment in a line: Cell viability assay (ATP quantitation). The settings on record: 50 nM, 5 days, vs non-targeting control. It counts as cell-based. As for the experimental part: as §1, §2
Data set [10] concerns U87-MG Glioblastoma cell line. The experiment in a line: Cell viability assay (ATP quantitation). It counts as cell-based. As to conditions: 50 nM, 5 days, vs non-targeting control. As for the experimental part:
as §1, §2

Data set [11] concerns H929 multiple myeloma cell line. The experiment in a line: Cell viability assay (ATP quantitation). The settings on record: 50 nM, 5 days, vs non-targeting control. Format: cell-based. The procedure: as §1, §2
The test system of data set [12] is A-172 Glioblastoma cell line. In words: Cell viability assay (ATP quantitation). It counts as cell-based. The settings on record: 50 nM, 5 days, vs non-targeting control. As for the experimental part: as §1, §2
In data set [13] the test system is SW1271 lung cancer cell line. The experiment in a line: Cell viability assay (ATP quantitation). It counts as cell-based. The settings on record: 50 nM, 5 days, vs non-targeting control. The procedure:
as §1, §2

For data set [14], the system named is HCT116 colon carcinoma cell line. The experiment in a line: Cell viability assay (ATP quantitation). It counts as cell-based. The settings on record: 50 nM, 5 days, vs non-targeting control. As for the experimental part: as §1, §2
Data set [15] relates to L363 multiple myeloma cell line. In words: Cell viability assay (ATP quantitation). Format: cell-based. As to conditions: 50 nM, 5 days, vs non-targeting control. The procedure: as §1, §2
A further data set has as its system MM485 melanoma cell line. In words: Cell viability assay (ATP quantitation). It counts as cell-based. As to conditions: 50 nM, 5 days, vs non-targeting control. The procedure:
as §1, §2

Data set [16] concerns MM415RM trametinib resistant melanoma cell line. In words: Cell viability assay (ATP quantitation). As to conditions: 50 nM, 5 days, vs non-targeting control. Format: cell-based.
Excerpt: (§3) Human melanoma cell line VMM39 was purchased from American Type Culture Collection (ATCC). Human melanoma cell lines D04, MM415, WM1366, WM3629, WM3211, Sk-Mel-2 and Sk-Mel-28 were a generous gift from Boris Bastian at the University of California, San Francisco. Primary human melanoma cell line Hs852.T was purchased from the Cell Culture Core Facility (CCCF) at the University of California, San Francisco. Primary human melanoma cell line AV5 was obtained from metastasis of a melanoma patient. All experimental protocols were approved by UCSF Human Research Protection Program Institutional Review Board (IRB #12-0948), all patients signed informed consent, and methods were carried out in accordance with relevant guidelines and regulations. Resistant cell lines DO4RM, MM415RM, Sk-Mel-2RM and WM3629RM were established as previously described. [Sanlorenzo, M. et al., The lincRNA MIRAT binds to IQGAPI and modulates the MAPK pathway in NRAS mutant melanoma. Sci Rep 8, 10902 (2018).] Primary human melanocytic cell lines (PHM) from infant foreskin of five healthy donors were available in our cell repository and pooled. Melanoma cell lines were maintained in RPMI 1640 media supplemented with 10% (vol/vol) heat inactivated fetal bovine serum. Melanocytes were maintained in M254 medium with HMGS supplements (1× final solution). All cell lines were incubated at 37° C. under 5% CO2.
as §1, §2

Data set [17] deals with D04RM trametinib resistant melanoma cell line. In words: Cell viability assay (ATP quantitation). It counts as cell-based. The settings on record: 50 nM, 5 days, vs non-targeting control.
Excerpt: as §3, §1, §2

In data set [18] the test system is Sk-Mel-2-RM trametinib resistant melanoma cell line. The experiment in a line: Cell viability assay (ATP quantitation). It counts as cell-based. As to conditions: 50 nM, 5 days, vs non-targeting control.
Excerpt: as §3, §1, §2

The test system of data set [19] is WM3629RM trametinib resistant melanoma cell line. In words: Cell viability assay (ATP quantitation). It counts as cell-based. As to conditions: 50 nM, 5 days, vs non-targeting control.
Excerpt: as §3, §1, §2

In data set [20] the test system is Sk-Mel-2 melanoma cell line. In words: Cell viability assay (ATP quantitation). It counts as cell-based, human. As to conditions: 50 nM, 5 days (120 hrs), vs non-targeting control. The procedure:
as §1, §2

The test system of data set [21] is AV5 primary melanoma cell line. The experiment in a line: Cell viability assay (ATP quantitation). Format: cell-based, human. As to conditions: 50 nM, 5 days (120 hrs), vs non-targeting control. As for the experimental part: as §1, §2
For the next data set, the system named is VMM39 melanoma cell line. The experiment in a line: Cell viability assay (ATP quantitation). It counts as cell-based, human. As to conditions: 50 nM, 5 days (120 hrs), vs non-targeting control. As for the experimental part: as §1, §2
The next data set deals with MM415 melanoma cell line. In words: Cell viability assay (ATP quantitation). Format: cell-based, human. As to conditions: 50 nM, 5 days (120 hrs), vs non-targeting control. As for the experimental part:
as §1, §2

In a further data set the test system is D04 melanoma cell line. In words: Cell viability assay (ATP quantitation). Format: cell-based, human. The settings on record: 50 nM, 5 days (120 hrs), vs non-targeting control. The procedure:
as §1, §2

Data set [22] relates to Hs852.T primary melanoma cell line. In words: Cell viability assay (ATP quantitation). It counts as cell-based, human. As to conditions: 50 nM, 5 days (120 hrs), vs non-targeting control. As for the experimental part:
as §1, §2

In data set [23] the test system is WM1366 melanoma cell line. In words: Cell viability assay (ATP quantitation). Format: cell-based, human. As to conditions: 50 nM, 5 days (120 hrs), vs non-targeting control. As for the experimental part:
as §1, §2

The test system of data set [24] is WM3629 melanoma cell line. The experiment in a line: Cell viability assay (ATP quantitation). It counts as cell-based, human. As to conditions: 50 nM, 5 days (120 hrs), vs non-targeting control. As for the experimental part:
as §1, §2

Data set [25] concerns WM3211 melanoma cell line. The experiment in a line: Cell viability assay (ATP quantitation). It counts as cell-based, human. As to conditions: 50 nM, 5 days (120 hrs), vs non-targeting control. The procedure:
as §1, §2

The test system of data set [26] is Sk-Mel-28 melanoma cell line. The experiment in a line: Cell viability assay (ATP quantitation). The settings on record: 50 nM, 5 days (120 hrs), vs non-targeting control. Format: cell-based, human. The procedure:
as §1, §2

The test system of the next data set is Caspase 3+7. In words: Caspase Glo 3/7 assay in D04 cell line. Format: cell-based, human. The settings on record: ASO 50 nM, 1 day, vs control ASOs. As for the experimental part:
Dependent on cell doubling time, 2-3×10^^3 cells were seeded in 96 well plates. 1 day after seeding cells were incubated in media with 50 nM oligonucleotide concentration and transfection reagent. 1 day after transfection Total luminescence was measured on the SynergyHT plate reader (BioTek) using Gen5 software. Experiments were performed in quadruplicates.

In the case of “ATCATCTGGATTAGTG (chemistry not given here) [SEQ ID NO: 14, Antisense oligonucleotide targeting BX470102.3-008]”, the cell viability decrease entry in [1], in data set [2], in [3], in data set [4], in data set [5] and in data set [6] was “significant cell viability decrease” in each case. For the same sequence, the cell viability decrease result in data set [7], in [8], in data set [9], in data set [10], in data set [11] and in data set [12] was “significant cell viability decrease” in each case. In addition, the cell viability decrease entry (in data set [13]; in [14]; in data set [15]; in the data set on MM485 melanoma cell line; in data set [16]; in [17]) was “significant cell viability decrease” throughout. Also, the cell viability decrease entry (in data set [18]; in [19]; in data set [20]; in data set [21]; in the data set on VMM39 melanoma cell line; in the data set on MM415 melanoma cell line) was “significant cell viability decrease” throughout. In addition, the cell viability decrease entry (in the data set on D04 melanoma cell line; in data set [22]; in data set [23]; in [24]; in data set [25]; in [26]) was “significant cell viability decrease” throughout.

Turning to “GACCGTAGTTAGAAGG (GapmeR, chemically modified, pattern not given here) [SEQ ID NO: 48, GapmeR antisense oligonucleotide targeting HNRNPA2/B1]”, the “Caspase-3 &-7 activity increase” value with Caspase 3+7 is 1.7 fold. For the same sequence, the cell viability decrease entry in the data set with D04 melanoma cell line and in the data set on D04 melanoma cell line (listed as hnRNPA2/B1i) was “significant cell viability decrease” throughout.

In the case of “GATCATTTAATTTGAC (QIAGEN GapmeR, modification pattern not given here) [SEQ ID NO: 18, Antisense oligonucleotide targeting RP11-7011.3-001, 002 and 003]”, the cell viability decrease entry in data set [1], in data set [2], in [3], in data set [4], in [5] and in [6] was “significant cell viability decrease” each time. Also, the cell viability decrease result in [7], in [9], in data set [10], in data set [11], in data set [12] and in data set [13] was “significant cell viability decrease” in each case. The cell viability decrease entry (in data set [14]; in data set [15]; with MM485 melanoma cell line; in data set [16]; in [17]; in data set [18]) was “significant cell viability decrease” in each case. Besides, the cell viability decrease entry (in data set [19]; in [20]; in the data set with VMM39 melanoma cell line; in the data set on MM415 melanoma cell line; in the data set on D04 melanoma cell line; in [22]) was “significant cell viability decrease” in each case. Moreover, the cell viability decrease result in data set [23], in data set [24], in [25] and in data set [26] was “significant cell viability decrease” in each case.
